Source: patent US11040954B1, “CXCR3 receptor agonists” (RECEPTOS LLC, priority 2016, dated 2021)

Target: T1, CXCR3 (Homo sapiens, UniProt P49682)
T1 construct: host or cells: CHO-K1 (cAMP Hunter CHOK1 CXCR3 Gi cell line)
T1 sequence (P49682 1-368): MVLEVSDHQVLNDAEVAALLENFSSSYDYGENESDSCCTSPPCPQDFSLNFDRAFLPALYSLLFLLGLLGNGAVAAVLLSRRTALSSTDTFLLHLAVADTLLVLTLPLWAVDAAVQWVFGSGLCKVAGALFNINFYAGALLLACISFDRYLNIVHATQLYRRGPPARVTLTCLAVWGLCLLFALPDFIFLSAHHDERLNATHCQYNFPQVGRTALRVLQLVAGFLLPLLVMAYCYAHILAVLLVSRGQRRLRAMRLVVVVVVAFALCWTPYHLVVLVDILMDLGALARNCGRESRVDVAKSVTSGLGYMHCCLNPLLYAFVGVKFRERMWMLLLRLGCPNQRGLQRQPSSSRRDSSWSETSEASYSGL
Test: CXCR3 cAMP agonist assay (cAMP Hunter CHOK1 CXCR3 Gi cell line, forskolin-stimulated, HitHunter cAMP detection)
Assay type: cell-based
Details: cAMP Hunter CHOK1 CXCR3 Gi cells, 20 μM forskolin, 30 minutes; read-out: Activity (CXCR3 cAMP agonist assay compound EC50)
How it was run: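 Agonist activity was measured as suppression of forskolin (20 μM)-induced cAMP, read by luminescent enzyme-fragment complementation with a cAMP standard curve and CXCL11 defining full efficacy. Assay used 50,000 CXCR3 Gi CHOK1 cells/well in pH 7.4 HEPES-buffered HBSS with 0.1% BSA, compound 0-10 μM over 12 points, 30 min incubation.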

EC50 [nM]	Compound
< 50	Cc1cc(NC(=O)[C@H](CCN)NC(=O)[C@@H]2Cc3ccccc3CN2C(=O)CCC(=O)N2CC[C@@H](N(C)C)C2)ccc1Cl [Compound 12-50]
50 to 250	Cc1ccc(NC(=O)C2(NC(=O)[C@@H]3Cc4ccccc4CN3C(=O)CCC(=O)c3ccccc3)CCNCC2)c(F)c1 [Compound 13-2]
< 50	CC1(C)CCCN1C(=O)CCC(=O)N1Cc2cc(F)ccc2C[C@H]1C(=O)N[C@@H](CCN)C(=O)Nc1ccc(Cl)c(Cl)c1F [Compound 15-61]
< 50	Cc1cc(NC(=O)[C@H](CCN)NC(=O)[C@@H]2Cc3ccccc3CN2C(=O)CCC(=O)N2CCC(C(F)(F)F)C2)ccc1Cl (stereo partly shown) [Compound 12-52]
< 50	Cc1cc(NC(=O)[C@H](CCN)NC(=O)[C@@H]2Cc3ccccc3CN2C(=O)CCC(=O)N2CCCCC2(C)C)ccc1Cl [Compound 12-26]
< 50	Cc1cc(NC(=O)[C@H](CCN)NC(=O)[C@@H]2Cc3ccccc3CN2C(=O)CCC(=O)N2C(C)CCC2C)ccc1Cl (stereo partly shown) [Compound 12-47]
< 50	CC1(C)CCCN1C(=O)CCC(=O)N1Cc2ccccc2C[C@H]1C(=O)N[C@@H](CCN)C(=O)Nc1ccc(Cl)c(Cl)c1F [Compound 15-4]
< 50	Cc1cc(NC(=O)[C@H](CCN)NC(=O)[C@@H]2Cc3ccccc3CN2C(=O)CCC(=O)N2CCCC(F)(F)C2)ccc1Cl [Compound 12-79]
> 500	Cc1cc(NC(=O)[C@H](CCN)NC(=O)[C@@H]2Cc3ccccc3CN2C(=O)CCC(=O)N2CCNCC2)ccc1Cl [Compound 12-115]
< 50	CC1(C)CCCCN1C(=O)CCC(=O)N1Cc2ccccc2C[C@H]1C(=O)N[C@H](CCN1CCC(O)CC1)C(=O)Nc1ccc(Cl)c(Cl)c1F [Compound 26-2]
> 500	Cc1cc(NC(=O)[C@H](CCN)NC(=O)[C@@H]2Cc3ccccc3CN2C(=O)CCC(=O)N(C)Cc2ccccc2)ccc1Cl [Compound 12-16]
< 50	O=C(CCC(=O)N1Cc2ccccc2CC1C(=O)NC(CCN1CCC(F)CC1)C(=O)Nc1ccc(Cl)c(Cl)c1F)c1ccccc1 (racemic) [Compound 23-3]
50 to 250	COC1CCN(CC[C@H](NC(=O)[C@@H]2Cc3ccccc3CN2C(=O)CCC(=O)c2ccccc2)C(=O)Nc2ccc(Cl)c(C)c2)CC1 [Compound 24-1, (S)—N—((S)-1-((4-chloro-3-methylphenyl)amino)-4-(4-methoxypiperidin-1-yl)-1-oxobutan-2-yl)-2-(4-oxo-4-phenylbutanoyl)-1,2,3,4-tetrahydroisoquinoline-3-carboxamide]
50 to 250	CC(C)C1CCCCN1C(=O)CCC(=O)N1Cc2ccccc2C[C@H]1C(=O)N[C@@H](CCN)C(=O)Nc1ccc(Cl)c(Cl)c1F (stereo partly shown) [Compound 15-21]
< 50	Cc1cc(NC(=O)[C@H](CCN)NC(=O)[C@@H]2Cc3ccccc3CN2C(=O)CCC(=O)N2CC(C)C(C)C2)ccc1Cl (stereo partly shown) [Compound 12-68]
250 to 500	Cc1cc(NC(=O)[C@H](CCN)NC(=O)[C@@H]2Cc3ccccc3CN2C(=O)CCC(=O)N2CC(F)C2)ccc1Cl [Compound 12-19]

EC50 [nM]	Compound
< 50	Cc1cc(NC(=O)[C@H](CCN)NC(=O)[C@@H]2Cc3ccccc3CN2C(=O)CCC(=O)N2CCC(F)CC2)ccc1Cl [Compound 12-67]
< 50	CC1(C)CCN(C(=O)CCC(=O)N2Cc3ccccc3C[C@H]2C(=O)N[C@@H](CCN)C(=O)Nc2ccc(Cl)c(Cl)c2F)CC1 [Compound 15-1, (S)—N—((S)-4-amino-1-((3,4-dichloro-2-fluorophenyl)amino)-1-oxobutan-2-yl)-2-(4-(4,4-dimethylpiperidin-1-yl)-4-oxobutanoyl)-1,2,3,4-tetrahydroisoquinoline-3-carboxamide]
250 to 500	NCC[C@@H](NC(=O)[C@@H]1Cc2ccccc2CN1C(=O)CCC(=O)c1ccccc1)C(=O)Nc1ccc(Cl)c(Cl)c1F [Compound 14-29]
< 50	Cc1cc(NC(=O)[C@H](CCN)NC(=O)[C@@H]2Cc3ccccc3CN2C(=O)CCC(=O)N2CC(C(C)(C)C)C2)ccc1Cl [Compound 12-40]
< 50	COCC1CCCCN1C(=O)CCC(=O)N1Cc2ccccc2C[C@H]1C(=O)N[C@@H](CCN)C(=O)Nc1ccc(Cl)c(Cl)c1F (stereo partly shown) [Compound 15-16]
< 50	Cc1c(F)cc(NC(=O)[C@H](CCN)NC(=O)[C@@H]2Cc3ccccc3CN2C(=O)CCC(=O)c2ccccc2)cc1F [Compound 27-5]
50 to 250	CCC(CC)C1CCCCN1C(=O)CCC(=O)N1Cc2ccccc2C[C@H]1C(=O)N[C@@H](CCN)C(=O)Nc1ccc(Cl)c(Cl)c1F (stereo partly shown) [Compound 15-23]
< 50	Cc1cc(NC(=O)[C@H](CCN)NC(=O)[C@@H]2Cc3ccccc3CN2C(=O)CCC(=O)N2CCC(C(C)(C)C)CC2)ccc1Cl [Compound 12-87]
< 50	Cc1cc(NC(=O)[C@H](CCN)NC(=O)[C@@H]2Cc3ccccc3CN2C(=O)CCC(=O)N2C(C)CCCC2C)ccc1Cl (stereo partly shown) [Compound 12-41]
50 to 250	Cc1c(Cl)ccc(NC(=O)C(CCN2CCC(O)CC2)NC(=O)[C@@H]2Cc3ccccc3CN2C(=O)CCC(=O)c2ccccc2)c1Cl (mixture of isomers) [Compound 25-1, (3S)—N-(1-((2,4-dichloro-3-methylphenyl)amino)-4-(4-hydroxypiperidin-1-yl)-1-oxobutan-2-yl)-2-(4-oxo-4-phenylbutanoyl)-1,2,3,4-tetrahydroisoquinoline-3-carboxamide]
250 to 500	NCC[C@H](NC(=O)[C@@H]1Cc2ccccc2CN1C(=O)CCC(=O)c1ccccc1)C(=O)Nc1c(F)cccc1Cl [Compound 14-9]
250 to 500	Cc1ccc(C#N)cc1NC(=O)[C@H](CCN)NC(=O)[C@@H]1Cc2ccccc2CN1C(=O)CCC(=O)c1ccccc1 [Compound 14-20]
< 50	Cc1cc(NC(=O)[C@H](CCN)NC(=O)[C@@H]2Cc3ccccc3CN2C(=O)CCC(=O)N2CCCOCC2)ccc1Cl [Compound 12-20]
< 50	COC1CCN(C(=O)CCC(=O)N2Cc3ccccc3C[C@H]2C(=O)N[C@@H](CCN)C(=O)Nc2ccc(Cl)c(C)c2)C1 (stereo partly shown) [Compound 12-64]
< 50	CCN(C(=O)CCC(=O)N1Cc2ccccc2C[C@H]1C(=O)N[C@@H](CCN)C(=O)Nc1ccc(Cl)c(Cl)c1F)C(C)(C)C [Compound 15-35]
50 to 250	Cc1cc(NC(=O)[C@H](CCN)NC(=O)[C@@H]2Cc3ccccc3CN2C(=O)CCC(=O)N2CCN(C3CC3)CC2)ccc1Cl [Compound 12-33]

Second part, the molecule before the results:

Compound	EC50 [nM]
NCC[C@H](NC(=O)[C@@H]1Cc2ccccc2CN1C(=O)CCC(=O)c1ccccc1)C(=O)Nc1ccc2ncsc2c1 [Compound 2-65]	50 to 250
CCc1ccc(NC(=O)[C@H](CCCCN)NC(=O)[C@@H]2Cc3ccccc3CN2C(=O)CCC(=O)c2ccccc2)cc1CC [Compound 1-16]	50 to 250
COc1ccc(C(=O)CCC(=O)N2Cc3ccccc3C[C@H]2C(=O)N[C@@H](CCCCN)C(=O)Nc2ccc(Cl)c(C)c2)cc1F [Compound 7-9]	> 500
Cc1cc(NC(=O)[C@H](CCCNC(=N)N)NC(=O)[C@@H]2Cc3ccccc3CN2C(=O)CCC(=O)c2ccccc2)ccc1Cl [Compound 1-32]	< 50
NCC[C@H](NC(=O)[C@@H]1Cc2ccccc2CN1C(=O)CCC(=O)c1ccccc1)C(=O)NC1Cc2ccccc2C1 [Compound 2-66]	< 50
COc1ccc(C)cc1NC(=O)[C@H](CCN)NC(=O)[C@@H]1Cc2ccccc2CN1C(=O)CCC(=O)c1ccccc1 [Compound 1-38]	< 50
Cc1cc(NC(=O)[C@H](Cc2ccncc2)NC(=O)[C@@H]2Cc3ccccc3CN2C(=O)CCC(=O)c2ccccc2)ccc1Cl [Compound 3-4]	50 to 250
NCC[C@H](NC(=O)[C@@H]1Cc2ccccc2CN1C(=O)CCC(=O)c1ccccc1)C(=O)Nc1cccc(C(F)(F)F)c1 [Compound 2-6]	50 to 250
NCC[C@H](NC(=O)[C@@H]1Cc2ccccc2CN1C(=O)CCC(=O)c1ccccc1)C(=O)Nc1ccc2c(c1)CCCC2 [Compound 2-46]	< 50
CC1(C)CCCN(C(=O)CCC(=O)N2Cc3ccccc3C[C@H]2C(=O)N[C@@H](CCN)C(=O)Nc2ccc3c(c2)CCC3)C1 [Compound 10-7]	< 50
COc1nccc(C[C@H](NC(=O)[C@@H]2Cc3ccccc3CN2C(=O)CCC(=O)c2ccccc2)C(=O)Nc2ccc(Cl)c(C)c2)n1 [Compound 3-11]	250 to 500
Cc1cc(NC(=O)[C@H](CCCCN)NC(=O)[C@@H]2Cc3ccccc3CN2C(=O)CCC(=O)c2ccc(F)c(F)c2)ccc1Cl [Compound 7-4]	250 to 500
NCCCC[C@H](NC(=O)[C@@H]1Cc2ccccc2CN1C(=O)CCC(=O)c1ccccc1)C(=O)Nc1ccc(Cl)c(C(F)(F)F)c1 [Compound 1-18]	< 50
Cc1nc2ccc(NC(=O)[C@H](CCN)NC(=O)[C@@H]3Cc4ccccc4CN3C(=O)CCC(=O)c3ccccc3)cc2s1 [Compound 2-64]	250 to 500
NCCCC[C@H](NC(=O)[C@@H]1Cc2ccccc2CN1C(=O)CCC(=O)c1ccccc1)C(=O)Nc1ccc(Cl)c(Cl)c1 [Compound 1-1, (S)—N—((S)-6-amino-1-((3,4-dichlorophenyl)amino)-1-oxohexan-2-yl)-2-(4-oxo-4-phenylbutanoyl)-1,2,3,4-tetrahydroisoquinoline-3-carboxamide]	50 to 250
NCCCC[C@H](NC(=O)[C@@H]1Cc2ccccc2CN1C(=O)CCC(=O)c1ccccc1)C(=O)Nc1cccc(F)c1 [Compound 1-8]	> 500
NCC[C@H](NC(=O)[C@@H]1Cc2ccccc2CN1C(=O)CCC(=O)c1ccccc1)C(=O)Nc1ccc(Cl)c(C(F)(F)F)c1 [Compound 2-4]	50 to 250
